Source: patent US11180657B2, “Polysulfonated fluorescence dyes” (ATTO-TEC GmbH, priority 2017, dated 2021)
Marks after values point to notes of the source that are not given here.

Experiments:
[1] = Absorption maximum of the dye; format: physicochemical
Source text: (§1) Examples of the compounds according to the invention are listed in Tables 2-6, where the structures as well as the absorption and fluorescence maxima are indicated. The spectra of selected compounds are shown FIGS. 5-18.

[2] = Fluorescence maximum of the dye; format: physicochemical
Source text: as §1

Row | Compound | λabs ([1]; solvent PBS pH 7.4) | λfl ([2]; solvent PBS pH 7.4) | λabs ([1]; solvent ethanol) | λfl ([2]; solvent ethanol)
1 | CN(CCCC(=O)O)C(=O)c1ccccc1C1=c2cc3c(cc2C(C)(C)c2cc4c(cc21)C(CS(=O)(=O)O)=CC(C)(C)N4Cc1ccc(S(=O)(=O)O)cc1S(=O)(=O)O)=[N+](Cc1ccc(S(=O)(=O)O)cc1S(=O)(=O)O)C(C)(C)C=C3CS(=O)(=O)O [Compound 67] | 679^b nm | 707^b nm |  | 
2 | CN(CCCC(=O)O)C(=O)c1ccccc1C1=c2cc3c(cc2C(C)(C)c2cc4c(cc21)C(CS(=O)(=O)O)CC(C)(C)N4Cc1ccc(S(=O)(=O)O)cc1S(=O)(=O)O)=[N+](Cc1ccc(S(=O)(=O)O)cc1S(=O)(=O)O)C(C)(C)CC3CS(=O)(=O)O (stereo not drawn) [Compound 68] | 645^b nm | 666^b nm |  | 
3 | CN(CCCC(=O)O)C(=O)c1ccccc1C1=C2C=C/C(=[N+](\C)Cc3ccc(S(=O)(=O)O)cc3S(=O)(=O)O)C=C2[Si](C)(C)c2cc(N(C)Cc3ccc(S(=O)(=O)O)cc3S(=O)(=O)O)ccc21 [Compound 69] | 658^b nm | 680^b nm |  | 
4 | CN(Cc1ccc(S(=O)(=O)O)cc1S(=O)(=O)O)c1ccc2c(c1)[Si](C)(C)C1=C/C(=[N+](/C)Cc3ccc(S(=O)(=O)O)cc3S(=O)(=O)O)C=CC1=C2c1cc(C(=O)O)ccc1C(=O)O [Compound 70] | 649^b nm | 670^b nm |  | 
5 | CN(CCCC(=O)O)C(=O)c1ccccc1C1=c2cc3c(cc2[Si](C)(C)c2cc4c(cc21)C(CS(=O)(=O)O)=CC(C)(C)N4Cc1ccc(S(=O)(=O)O)cc1S(=O)(=O)O)=[N+](Cc1ccc(S(=O)(=O)O)cc1S(=O)(=O)O)C(C)(C)C=C3CS(=O)(=O)O [Compound 71] | 722^b nm | 752^b nm |  | 
6 | CC1(C)C=C(CS(=O)(=O)O)c2cc3c(cc2N1Cc1ccc(S(=O)(=O)O)cc1S(=O)(=O)O)[Si](C)(C)c1cc2c(cc1=C3c1cc(C(=O)O)ccc1C(=O)O)C(CS(=O)(=O)O)=CC(C)(C)[N+]=2Cc1ccc(S(=O)(=O)O)cc1S(=O)(=O)O [Compound 72] | 711^b nm | 740^b nm |  | 
7 | CN(CCCC(=O)O)C(=O)c1ccccc1C1=c2cc3c(cc2[Si](C)(C)c2cc4c(cc21)C(CS(=O)(=O)O)CC(C)(C)N4Cc1ccc(S(=O)(=O)O)cc1S(=O)(=O)O)=[N+](Cc1ccc(S(=O)(=O)O)cc1S(=O)(=O)O)C(C)(C)CC3CS(=O)(=O)O (stereo not drawn) [Compound 73] | 686^b nm | 708^b nm |  | 
8 | CC1(C)CC(CS(=O)(=O)O)c2cc3c(cc2N1Cc1ccc(S(=O)(=O)O)cc1S(=O)(=O)O)[Si](C)(C)c1cc2c(cc1=C3c1cc(C(=O)O)ccc1C(=O)O)C(CS(=O)(=O)O)CC(C)(C)[N+]=2Cc1ccc(S(=O)(=O)O)cc1S(=O)(=O)O (stereo not drawn) [Compound 74] | 675^b nm | 698^b nm |  | 
9 | CN(C)c1ccc2c(c1)C(C)(C)c1cc3c(cc1=C2)CCC[N+]=3CS(=O)(=O)O [Compound 75] |  |  | 597^a nm | 621^a nm
10 | CN(C)c1ccc2c(c1)C(C)(C)c1cc3c(cc1=C2)CCC[N+]=3Cc1ccc(S(=O)(=O)O)cc1S(=O)(=O)O [Compound 76] | 596^b nm | 622^b nm |  | 
11 | CN(C)c1ccc2c(c1)C(C)(C)c1cc3c(cc1=C2C#N)CCC[N+]=3Cc1ccc(S(=O)(=O)O)cc1S(=O)(=O)O [Compound 77] | 730^b nm | 751^b nm |  | 
12 | CN(C)c1ccc2c(c1)C(C)(C)c1cc3c(cc1=C2NCCCCCC(=O)O)CCC[N+]=3Cc1ccc(S(=O)(=O)O)cc1S(=O)(=O)O [Compound 78] | 463 nm | 609^b nm | 468 nm | 
13 | CC1(C)c2c(cc3c4c2CCCN4CCC3)C=c2cc3c(cc21)=[N+](Cc1ccc(S(=O)(=O)O)cc1S(=O)(=O)O)CCC3 [Compound 79] | 627^b nm | 649^b nm |  | 
14 | CC1(C)c2c(cc3c4c2CCCN4CCC3)C(C#N)=c2cc3c(cc21)=[N+](Cc1ccc(S(=O)(=O)O)cc1S(=O)(=O)O)CCC3 [Compound 80] | 739^b nm | 761^b nm |  | 
15 | CC1(C)c2cc3c(cc2C(NCC(S(=O)(=O)O)S(=O)(=O)O)=c2cc4c(cc21)=[N+](Cc1ccc(S(=O)(=O)O)cc1S(=O)(=O)O)C(C)(C)C=C4CS(=O)(=O)O)CCCN3CCCC(=O)O [Compound 84] | 490^b nm | 644^b nm |  | 
16 | C[N+](C)=C1C=CC2=C(NC(CCS(=O)(=O)O)C(=O)O)c3cc4c(cc3C(C)(C)C2=C1)N(Cc1ccc(S(=O)(=O)O)cc1S(=O)(=O)O)CCC4 (stereo not drawn) [Compound 85] | 496^b nm | 673^b nm |  | 
17 | CC1(C)c2cc3c(cc2C(NCC(S(=O)(=O)O)S(=O)(=O)O)=c2cc4c(cc21)=[N+](Cc1ccc(S(=O)(=O)O)cc1S(=O)(=O)O)C(C)(C)C=C4CS(=O)(=O)O)C(CS(=O)(=O)O)=CC(C)(C)N3CCCC(=O)O [Compound 86] | 502^b nm | 660^b nm |  | 

Row | Compound | λabs ([1]; solvent PBS pH 7.4) | λfl ([2]; solvent PBS pH 7.4) | λabs ([1]; solvent ethanol) | λfl ([2]; solvent ethanol)
18 | CCN(CS(=O)(=O)O)c1ccc2c(c1)[Si](C)(C)C1=C/C(=[N+](/CC)CS(=O)(=O)O)C=CC1=C2NCCS(=O)(=O)O [Compound 87] | 472^b nm | 605^b nm |  | 
19 | CCN(CS(=O)(=O)O)c1ccc2c(c1)[Si](C)(C)C1=C/C(=[N+](/CC)CS(=O)(=O)O)C=CC1=C2NCC(S(=O)(=O)O)S(=O)(=O)O [Compound 88] | 471^b nm | 605^b nm |  | 
20 | CN(Cc1ccc(S(=O)(=O)O)cc1S(=O)(=O)O)c1ccc2c(c1)[Si](C)(C)C1=C/C(=[N+](/C)Cc3ccc(S(=O)(=O)O)cc3S(=O)(=O)O)C=CC1=C2C#N [Compound 89] | 746^b nm | 763^b nm |  | 
21 | CN(Cc1ccc(S(=O)(=O)O)cc1S(=O)(=O)O)c1ccc2c(c1)[Si](C)(C)C1=C/C(=[N+](/C)Cc3ccc(S(=O)(=O)O)cc3S(=O)(=O)O)C=CC1=C2NCCCC(=O)O [Compound 90] | 483^b nm | 637^b nm |  | 
22 | CC1(C)C=C(CS(=O)(=O)O)c2cc3c(cc2N1CCCC(=O)O)[Si](C)(C)c1cc2c(cc1=C3)C(CS(=O)(=O)O)=CC(C)(C)[N+]=2CS(=O)(=O)O [Compound 91] | 715^b nm | 738^b nm |  | 
23 | CC1(C)C=C(CS(=O)(=O)O)c2cc3c(cc2N1CCCC(=O)O)[Si](C)(C)c1cc2c(cc1=C3C#N)C(CS(=O)(=O)O)=CC(C)(C)[N+]=2CCS(=O)(=O)O [Compound 92] | 817^b nm | 841^b nm |  | 
24 | CC1(C)C=C(CS(=O)(=O)O)c2cc3c(cc2N1CCCC(=O)O)[Si](C)(C)c1cc2c(cc1=C3NCC(S(=O)(=O)O)S(=O)(=O)O)C(CS(=O)(=O)O)=CC(C)(C)[N+]=2CCS(=O)(=O)O [Compound 93] | 516^b nm | 695^b nm |  | 
25 | C[Si]1(C)c2cc3c(cc2C=c2cc4c(cc21)=[N+](Cc1ccc(S(=O)(=O)O)cc1S(=O)(=O)O)CCC4)CCCN3CCCC(=O)O [Compound 94] | 670^b nm | 693^b nm |  | 
26 | C[Si]1(C)c2cc3c(cc2C(NCCCC(=O)O)=c2cc4c(cc21)=[N+](Cc1ccc(S(=O)(=O)O)cc1S(=O)(=O)O)CCC4)CCCN3Cc1ccc(S(=O)(=O)O)cc1S(=O)(=O)O [Compound 95] | 489^b nm | 661^b nm |  | 
27 | CC1(C)C=C(CS(=O)(=O)O)c2cc3c(cc2N1CCS(=O)(=O)O)[Si](C)(C)c1cc2c(cc1=C3NC(CCS(=O)(=O)O)C(=O)O)C(CS(=O)(=O)O)=CC(C)(C)[N+]=2CCS(=O)(=O)O (stereo not drawn) [Compound 96] | 518^b nm | 695^b nm |  | 
28 | CC1(C)CC(CS(=O)(=O)O)c2cc3c(cc2=[N+]1CCCC(=O)O)Oc1cc(N(Cc2ccc(S(=O)(=O)O)cc2S(=O)(=O)O)Cc2ccc(S(=O)(=O)O)cc2S(=O)(=O)O)ccc1N=3 (stereo not drawn) [Compound 97] | 649^b nm | 667^b nm |  | 
29 | CC1(C)CC(CS(=O)(=O)O)c2cc3c(cc2=[N+]1CCCC(=O)O)Oc1cc2c(cc1N=3)CCCN2Cc1ccc(S(=O)(=O)O)cc1S(=O)(=O)O (stereo not drawn) [Compound 98] | 664^b nm | 682^b nm |  | 
30 | CC1(C)C=C(CS(=O)(=O)O)c2cc3c(cc2=[N+]1CCCC(=O)O)Oc1cc2c(cc1N=3)CCCN2Cc1ccc(S(=O)(=O)O)cc1S(=O)(=O)O [Compound 99] | 682^b nm | 700^b nm |  | 
31 | CC1(C)C=C(CS(=O)(=O)O)c2cc3c(cc2N1Cc1ccc(S(=O)(=O)O)cc1S(=O)(=O)O)Oc1cc2c(cc1=N3)C(CS(=O)(=O)O)=CC(C)(C)[N+]=2CCCC(=O)O [Compound 100] | 701^b nm | 718^b nm |  | 
32 | CC1(C)CC(CS(=O)(=O)O)c2cc3c(cc2=[N+]1Cc1ccc(S(=O)(=O)O)cc1S(=O)(=O)O)Oc1cc(N)c2cc(S(=O)(=O)O)ccc2c1N=3 (stereo not drawn) [Compound 101] | 647^b nm | 678^b nm |  | 
33 | CC1(C)c2cc3c(cc2N=c2cc4c(cc21)=[N+](CCCC(=O)O)C(C)(C)CC4CS(=O)(=O)O)CCCN3Cc1ccc(S(=O)(=O)O)cc1S(=O)(=O)O (stereo not drawn) [Compound 102] | 721^b nm | 742^b nm |  | 
34 | CC1(C)c2cc3c(cc2N=c2cc4c(cc21)=[N+](CCCC(=O)O)C(C)(C)C=C4CS(=O)(=O)O)CCCN3Cc1ccc(S(=O)(=O)O)cc1S(=O)(=O)O [Compound 103] | 740^b nm | 761^b nm |  | 
